Measurements from US20260272933A1, “USE OF HETEROCYCLIC COMPOUND IN TREATMENT OF INTERSTITIAL PNEUMONIA” (SUZHOU KINTOR PHARMACEUTICALS, INC., priority 2023, published 2026).
“Also recorded” adds a separate entry of the source.

Columns and labels:
[1] = system: GLi1; experiment: Western blot: degradation of TGF-β-induced GLi1 protein in A549 cells; format: cell-based, Human; conditions: 24-hour treatment, FIG. 43
Protocol: (§1) Human lung carcinoma cells (A549 cell line) were purchased from Shanghai Cell Bank of Chinese Academy of Sciences.
(§2) The cells were cultured in RPMI (Roswell Park Memorial Institute)-1640 medium supplemented with 10% FBS (Fetal Bovine Serum) and 1% penicillin-streptomycin. The cell culture conditions were 5% CO2 and […] Upon reaching approximately 80% confluence, the cells were subcultured at a 1:3 ratio.
(§3) A549 cells in the exponential growth phase were digested and plated into 6-well plates at 1×10^6 cells per well. After one day of growth, TGF-β (transforming growth factor-β) and different concentrations of compound B-1-1 were added to culture the cells. Protein was extracted 24 hours after drug treatment.
(§4) After removing the culture medium from the 6-well plates, the cells were washed once with PBS (phosphate-buffered saline) and then trypsinized. The cells were collected in 1.5 mL microcentrifuge tubes by centrifugation. […]
(§5) The protein concentration was determined using a BCA Protein Assay Kit. […] After thoroughly mixing, the plate was incubated at 60° C. for 10 min, and the absorbance was measured at 562 nm. Record the readings and plot a standard curve based on the standard concentration gradient. The protein concentration of the samples was calculated by substituting the sample absorbance values into the standard curve. […]

[2] = system: GLi2; experiment: Western blot: degradation of TGF-β-induced GLi2 protein in A549 cells; format: cell-based, Human; conditions: 24-hour treatment, FIG. 43
Protocol: as §1, §2, §3, §4, §5

[3] = system: Bleomycin-induced unilateral pulmonary fibrosis model in SD rats; experiment: Bleomycin-induced unilateral pulmonary fibrosis model, Masson Trichrome staining, Ashcroft fibrosis score of left lung; format: in vivo; conditions: for Fibrosis Score (Ashcroft), left lung: p.o., 28 days from Day 8, model group 3.79 ± 0.08, p < 0.001 vs. Model group
Source text: (§6) 55 SD rats were purchased from Zhejiang Charles River Laboratory Animal Technology Co., Ltd. and housed in the SPF-grade barrier system of KCl Biotechnology (Suzhou) Co., Ltd. The animal use certification number was SYXK (Su) 2017-0041, the temperature, humidity and light control system follows international standards.
(§7) Anesthesia: 1-2.5% isoflurane was used for respiratory anesthesia to maintain deep anesthesia of the animals.
(§8) After the rats were under surgical anesthesia, the experimental model was constructed according to the guidelines for establishing the unilateral pulmonary fibrosis model in KCl. The skin was shaved, locally disinfected, and then a layered incision was made to expose and preserve the trachea. Bleomycin (dose: 3 mg/kg) was administered via intratracheal instillation to induce left lung fibrosis. After confirming no bleeding, the incision was closed layer-by-layer using 2-0 silk surgical sutures. After the surgery, the animals were placed on a 37° C. electric heating pad until fully recovered. Normal feeding and drinking were confirmed before returning the animals to standard housing. Starting from the day of modeling, meloxicam (1 mg/kg) was administered subcutaneously once daily for three consecutive days for postoperative analgesia.
(§9) Prior to modeling, animals were randomly divided into five groups based on body weight, as follows: Sham model group (normal group) (n=10), model group (n=10), Nintedanib 100 mg/kg, qd group (n=10), Compound B-1-1 20 mg/kg, bid group (n=10), Compound B-1-1 40 mg/kg, bid group (n=10). The administration began on the 8th day after modeling. • Nintedanib: administered orally, once daily for 28 consecutive days; • Compound B-1-1: administered orally, twice daily for 28 consecutive days.
(§10) After euthanasia, animals were perfused systemically with pre-cooled PBS at 4° C. The lungs were collected, and the left lung lobes were perfused with formalin. Histopathological examinations were performed using HE staining and Masson Trichrome staining. HE staining was used to evaluate the extent of bronchial and small pulmonary artery injury and inflammation, while Masson Trichrome staining assessed the degree of pulmonary fibrosis.
(§11) The entire left lung was dehydrated and embedded in paraffin. Paraffin sections of the entire left lung were prepared at a thickness of 3 μm. HE-stained sections were used for pathological analysis and scoring of injury and inflammatory changes in terminal bronchioles and accompanying small pulmonary arteries within and surrounding the lesion (Tables 4-2 and 4-3). Masson Trichrome staining was performed on the left lung paraffin sections, and the stained sections were scanned using the Nano Zoomer Digital Pathology scanner (S210) to obtain whole-slide images. Ten areas of 1 mm^2 each were randomly selected within the lesion area, and semi-quantitative scoring was conducted under a double-blind condition according to the Ashcroft scoring system (Table 4-4).
(§12) Statistical analysis was performed using Prism 6.0 software. Data are expressed as mean±SEM (standard error). One-way ANOVA was used for the analysis, and Tukey's method was selected for the comparison of differences between groups; when comparing between two groups, a T-test was used for two-tailed detection; when p<0.05, there was a significant difference between the two groups. In cases where outliers were suspected due to large within-group variability, the Identify Outliers function in GraphPad Prism 6.0 was used to detect and exclude outlier values. For data analysis purposes, all relevant data from any animal excluded from the efficacy evaluation were also omitted from statistical analysis.

[4] = system: α-SMA; experiment: Western blot: degradation of TGF-β-induced α-SMA protein in A549 cells; format: cell-based, Human; conditions: 24-hour treatment, FIG. 43
Protocol: as §1, §2, §3, §4, §5

[5] = Body weight and clinical observations during the rat pulmonary fibrosis study; format: in vivo, SD rats; conditions: Group 5, 40 mg/kg, after administration, FIGS. 44 and 45
Source text: as §6
as §8, with “analgesia. […]” for “analgesia.”

[6] = system: Bleomycin-induced unilateral pulmonary fibrosis model in SD rats; experiment: Bleomycin-induced unilateral pulmonary fibrosis model, HE staining injury and inflammation score of terminal bronchioles and small pulmonary arteries; format: in vivo; conditions: for Injury Score of Terminal Bronchioles and Accompanying Small Pulmonary Arteries, At Margin Lesion / Injury Score of Terminal Bronchioles and Accompanying Small Pulmonary Arteries, Within Lesion: p.o., 28 days from Day 8, Mean ± SEM, p < 0.001 vs. Model group; for Injury Score of Terminal Bronchioles and Accompanying Small Pulmonary Arteries, At Margin Lesion: model group 5.44 ± 0.12; for Injury Score of Terminal Bronchioles and Accompanying Small Pulmonary Arteries, Within Lesion: model group 9.44 ± 0.22
Source text: as §6, §7, §8, §9, §10, §11, §12

[7] = both doses, 20 mg/kg and 40 mg/kg, twice daily from Day 8, p<0.001
[8] = 100 mg/kg, once daily from Day 8, p<0.001

Row | Structure (SMILES) | degradation of TGF-β-induced GLi1 protein (Western blot) [1] | degradation of TGF-β-induced GLi2 protein (Western blot) [2] | Fibrosis Score (Ashcroft), left lung ([3]; 20 mg/kg, b.i.d.) | effect in inhibiting the progression of pulmonary fibrosis lesions compared with positive drug nintedanib ([3]; 40 mg/kg, BID, versus nintedanib 100 mg/kg, QD) | Fibrosis Score (Ashcroft), left lung ([3]; 40 mg/kg, b.i.d.) | pulmonary fibrosis scores / progression compared to the model group (in words) [3, 7] | degradation of TGF-β-induced α-SMA protein (Western blot) [4] | body weight gain compared with the model group [5] | Injury Score of Terminal Bronchioles and Accompanying Small Pulmonary Arteries, At Margin Lesion ([6]; 20 mg/kg, b.i.d.) | Injury Score of Terminal Bronchioles and Accompanying Small Pulmonary Arteries, Within Lesion ([6]; 20 mg/kg, b.i.d.) | Injury Score of Terminal Bronchioles and Accompanying Small Pulmonary Arteries, At Margin Lesion ([6]; 40 mg/kg, b.i.d.) | Injury Score of Terminal Bronchioles and Accompanying Small Pulmonary Arteries, Within Lesion ([6]; 40 mg/kg, b.i.d.) | inflammatory infiltration and pathological injury in terminal bronchioles and small pulmonary arteries within and at the margins of fibrotic lesions, compared to model group (in words) [6, 7] | pulmonary fibrosis compared to the model group (in words) [3, 8] | Fibrosis Score (Ashcroft), left lung ([3]; 100 mg/kg, q.d.) | inflammatory cell infiltration and injury in terminal bronchioles and small pulmonary arteries within and surrounding fibrotic lesions, compared to model group (in words) [6, 8] | Injury Score of Terminal Bronchioles and Accompanying Small Pulmonary Arteries, At Margin Lesion ([6]; 100 mg/kg, q.d.) | Injury Score of Terminal Bronchioles and Accompanying Small Pulmonary Arteries, Within Lesion ([6]; 100 mg/kg, q.d.)
1 | Cc1cnc(-c2cc(N3CCc4nc(N5CCC(O)CC5)ncc4[C@H]3C)ncc2Cl)c(C)c1 [Compound B-1-1] | effectively degraded | effectively degraded | 2.93 ± 0.20 | same excellent effect | 2.62 ± 0.18 | significantly reduced; also recorded: significantly inhibit | effectively degraded | slower rate of weight gain | 3.50 ± 0.43 | 6.96 ± 0.46 | 3.14 ± 0.35 | 6.20 ± 0.47 | significantly decreased; also recorded: significantly improved |  |  |  |  | 
2 | COC(=O)c1ccc2c(c1)NC(=O)/C2=C(\Nc1ccc(N(C)C(=O)CN2CCN(C)CC2)cc1)c1ccccc1 [Nintedanib, nintedanib, reference compound] |  |  |  |  |  |  |  |  |  |  |  |  |  | significantly ameliorated; also recorded: significantly improved | 2.57 ± 0.09 | significantly reduced; also recorded: amelioration | 2.72 ± 0.17 | 6.24 ± 0.21
